Laboratory results: PubChem BioAssay AID330 (DTP/NCI, 2004)
Values joined by “and” are separate entries in the source; they are usually repeats but may differ in a detail not shown here. Equal values may be shown once. Toxic doses and inconclusive results are not listed.

Tested on: P388 leukemia ip, CD2F1 mice, survival T/C
Assay: NCI In Vivo Anticancer Drug Screen. Data for tumor model P388 Leukemia (intraperitoneal) in CD2F1 (CDF1) mice
Conditions: endpoint: median survival time, higher = longer survival
Procedure, shortened: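 Mice carrying the transplanted tumor received test compound or vehicle. Survival was recorded in each group, and the value is the treated-group measurement divided by that of the vehicle-treated control group.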

[1] = dose: 60.0 mg/kg/injection, schedule: Q01DX005 (ip), vehicle: saline with Tween-80
[2] = dose: 50.0 mg/kg/injection, schedule: Q01DX009 (ip), vehicle: saline with Tween-80
[3] = dose: 100.0 mg/kg/injection, schedule: Q01DX009 (ip), vehicle: saline with Tween-80
[4] = dose: 200.0 mg/kg/injection, schedule: Q01DX009 (ip), vehicle: saline with Tween-80
[5] = dose: 400.0 mg/kg/injection, schedule: Q01DX009 (ip), vehicle: saline with Tween-80
[6] = dose: 100.0 mg/kg/injection, schedule: Q01DX001 (ip), vehicle: saline with Tween-80
[7] = dose: 200.0 mg/kg/injection, schedule: Q01DX001 (ip), vehicle: saline with Tween-80
[8] = dose: 400.0 mg/kg/injection, schedule: Q01DX001 (ip), vehicle: saline with Tween-80
[9] = dose: 120.0 mg/kg/injection, schedule: Q01DX005 (ip), vehicle: saline with Tween-80
[10] = dose: 240.0 mg/kg/injection, schedule: Q01DX005 (ip), vehicle: saline with Tween-80
[11] = dose: 50.0 mg/kg/injection, schedule: Q01DX005 (ip), vehicle: Klucel (hydroxypropylcellulose) (HPC)

Structure (SMILES): Cc1c(O)c2ccccc2c2c1sc(NCCO)[n+]2C
- T/C (dose: 15.0 mg/kg/injection, schedule: Q01DX005 (ip), vehicle: saline with Tween-80): 100 % of control
- T/C (dose: 30.0 mg/kg/injection, schedule: Q01DX005 (ip), vehicle: saline with Tween-80): 105 % of control
- T/C [1]: 98 % of control and 99 % of control

Structure (SMILES): CN(C)C1C(O)C2Oc3c(cc(O)c4c3C(=O)c3cc5c(c(O)c3C4=O)C(NC3CCCCC3)CC(C)(O)C5)C(C)(O2)C1O (stereo unspecified)
- T/C (dose: 2.5 mg/kg/injection, schedule: Q01DX009 (ip), vehicle: other): 102 % of control
- T/C (dose: 5.0 mg/kg/injection, schedule: Q01DX009 (ip), vehicle: other): 105 % of control
- T/C (dose: 10.0 mg/kg/injection, schedule: Q01DX009 (ip), vehicle: other): 112 % of control
- T/C (dose: 40.0 mg/kg/injection, schedule: Q01DX009 (ip), vehicle: other): 121 % of control

Structure (SMILES): FC(F)(F)C1(C(F)(F)F)OS2(OC(C(F)(F)F)(C(F)(F)F)c3ccccc32)c2ccccc21
- T/C (dose: 100.0 mg/kg/injection, schedule: Q04DX003 (ip), vehicle: Klucel (hydroxypropylcellulose) (HPC)): 91 % of control
- T/C (dose: 200.0 mg/kg/injection, schedule: Q04DX003 (ip), vehicle: Klucel (hydroxypropylcellulose) (HPC)): 91 % of control
- T/C (dose: 400.0 mg/kg/injection, schedule: Q04DX003 (ip), vehicle: Klucel (hydroxypropylcellulose) (HPC)): 92 % of control

Structure (SMILES): O=C(CN1C(=O)c2ccccc2C1=O)NC(Cc1ccccc1)C(=O)O (stereo unspecified)
- T/C [2]: 95 % of control
- T/C [3]: 105 % of control
- T/C [4]: 102 % of control
- T/C [5]: 95 % of control

Structure (SMILES): Cc1ccc(S(=O)CC(O)c2ccccc2)cc1 (stereo unspecified)
- T/C [2]: 110 % of control
- T/C [3]: 101 % of control
- T/C [4]: 100 % of control

Structure (SMILES): Cc1cc(CO)cc(CO)c1
- T/C [6]: 104 % of control
- T/C [7]: 101 % of control
- T/C [8]: 100 % of control

Structure (SMILES): c1ccc2c(c1)[nH]c1c2c(N2CCOCC2)nn2nnnc12
- T/C [6]: 107 % of control
- T/C [7]: 106 % of control
- T/C [8]: 109 % of control

Structure (SMILES): CC(C)N(C(=O)c1ccc(Cl)c(Cl)c1)C(C)C
- T/C (dose: 12.5 mg/kg/injection, schedule: Q04DX003 (ip), vehicle: saline with Tween-80): 102 % of control and 103 % of control
- T/C (dose: 25.0 mg/kg/injection, schedule: Q04DX003 (ip), vehicle: saline with Tween-80): 102 % of control and 97 % of control
- T/C (dose: 50.0 mg/kg/injection, schedule: Q04DX003 (ip), vehicle: saline with Tween-80): 100 % of control and 97 % of control
- T/C (dose: 100.0 mg/kg/injection, schedule: Q04DX003 (ip), vehicle: saline with Tween-80): 103 % of control and 106 % of control (2×)
- T/C (dose: 200.0 mg/kg/injection, schedule: Q04DX003 (ip), vehicle: saline with Tween-80): 105 % of control
- T/C (dose: 400.0 mg/kg/injection, schedule: Q04DX003 (ip), vehicle: saline with Tween-80): 101 % of control

Structure (SMILES): O=P(NC1CCCC1)(N1CC1)N1CC1
- T/C (dose: 2.0 mg/kg/injection, schedule: Q04DX003 (ip), vehicle: saline): 110 % of control
- T/C (dose: 2.66 mg/kg/injection, schedule: Q01DX009 (ip), vehicle: saline): 154 % of control
- T/C (dose: 4.0 mg/kg/injection, schedule: Q01DX009 (ip), vehicle: saline): 209 % of control
- T/C (dose: 4.0 mg/kg/injection, schedule: Q04DX003 (ip), vehicle: saline): 120 % of control
- T/C (dose: 6.0 mg/kg/injection, schedule: Q01DX009 (ip), vehicle: saline): 118 % of control
- T/C (dose: 8.0 mg/kg/injection, schedule: Q04DX003 (ip), vehicle: saline): 200 % of control
- T/C (dose: 9.0 mg/kg/injection, schedule: Q01DX009 (ip), vehicle: saline): 100 % of control

Structure (SMILES): CCOC(=O)Nc1c(CCO)n[nH]c1C
- T/C (dose: 50.0 mg/kg/injection, schedule: Q01DX005 (ip), vehicle: saline with Tween-80): 108 % of control
- T/C (dose: 100.0 mg/kg/injection, schedule: Q01DX005 (ip), vehicle: saline with Tween-80): 101 % of control
- T/C (dose: 200.0 mg/kg/injection, schedule: Q01DX005 (ip), vehicle: saline with Tween-80): 97 % of control

Structure (SMILES): O=S(=O)(Nc1cccc(C(F)(F)F)c1)c1ccc(F)cc1
- T/C [1]: 94 % of control
- T/C [9]: 100 % of control
- T/C [10]: 93 % of control

Structure (SMILES): CC(C)CCCCC(O)C1C(=O)OCC1CO (stereo unspecified)
- T/C (dose: 7.25 mg/kg/injection, schedule: Q01DX005 (ip), vehicle: distilled water + alcohol): 101 % of control
- T/C (dose: 14.5 mg/kg/injection, schedule: Q01DX005 (ip), vehicle: distilled water + alcohol): 104 % of control
- T/C (dose: 29.0 mg/kg/injection, schedule: Q01DX005 (ip), vehicle: distilled water + alcohol): 111 % of control
- T/C (dose: 58.0 mg/kg/injection, schedule: Q01DX005 (ip), vehicle: distilled water + alcohol): 105 % of control

Structure (SMILES): O=C(CCl)n1ccc(=O)n(C(=O)CCl)c1=O
- T/C (dose: 100.0 mg/kg/injection, schedule: Q04DX002 (ip), vehicle: saline): 113 % of control
- T/C (dose: 200.0 mg/kg/injection, schedule: Q04DX002 (ip), vehicle: saline): 100 % of control
- T/C (dose: 400.0 mg/kg/injection, schedule: Q04DX002 (ip), vehicle: saline): 103 % of control

Structure (SMILES): CCn1c2nc(=O)n(C)c(=O)c-2[n+]([O-])c2cc(Br)c(C)cc21
- T/C (dose: 100.0 mg/kg/injection, schedule: Q04DX002 (ip), vehicle: saline with Tween-80): 96 % of control
- T/C (dose: 200.0 mg/kg/injection, schedule: Q04DX002 (ip), vehicle: saline with Tween-80): 94 % of control
- T/C (dose: 400.0 mg/kg/injection, schedule: Q04DX002 (ip), vehicle: saline with Tween-80): 96 % of control

Structure (SMILES): CN(C)c1ccc(/C=C/C2=[N+](C)c3ccccc3C2(C)C)cc1
- T/C (dose: 0.03 mg/kg/injection, schedule: Q01DX009 (ip), vehicle: saline): 110 % of control
- T/C (dose: 0.07 mg/kg/injection, schedule: Q01DX009 (ip), vehicle: saline): 97 % of control

Structure (SMILES): NC(=O)CC(N)C(=O)O.[Cl-].[Cl-].[Cl-].[Cl-].[Pt+2] (stereo unspecified)
- T/C (dose: 1.56 mg/kg/injection, schedule: Q01DX009 (ip), vehicle: water): 99 % of control
- T/C (dose: 3.13 mg/kg/injection, schedule: Q01DX009 (ip), vehicle: water): 100 % of control
- T/C (dose: 6.25 mg/kg/injection, schedule: Q01DX009 (ip), vehicle: water): 100 % of control

Structure (SMILES): COc1cc(/C=N/N2CN(C(C)C(=O)O)B(NCCC(C)C)N=C2N)cc(OC)c1 (stereo unspecified)
- T/C [1]: 104 % of control
- T/C [9]: 111 % of control

Structure (SMILES): O=C1NN=COc2ccccc21
- T/C [2]: 106 % of control and 108 % of control and 93 % of control
- T/C [3]: 100 % of control and 102 % of control and 105 % of control
- T/C [4]: 106 % of control and 115 % of control and 121 % of control
- T/C [5]: 110 % of control and 119 % of control

Structure (SMILES): CC(CC(=O)c1ccccc1)=NCCN=C(C)CC(=O)c1ccccc1.c1cc[c]([Sn][c]2ccccc2)cc1
- T/C (dose: 25.0 mg/kg/injection, schedule: Q01DX001 (ip), vehicle: Klucel (hydroxypropylcellulose) (HPC)): 108 % of control
- T/C (dose: 50.0 mg/kg/injection, schedule: Q01DX001 (ip), vehicle: Klucel (hydroxypropylcellulose) (HPC)): 124 % of control

Structure (SMILES): O=C(NC(Cc1ccc(O)cc1)C(=O)O)C(=O)c1c[nH]c2ccccc12 (stereo unspecified)
- T/C [1]: 96 % of control
- T/C [9]: 97 % of control
- T/C [10]: 100 % of control

Structure (SMILES): COc1ccc2c(c1)C(c1cccc3ccccc13)OC2=O (stereo unspecified)
- T/C (dose: 6.25 mg/kg/injection, schedule: Q01DX005 (ip), vehicle: Klucel (hydroxypropylcellulose) (HPC)): 103 % of control
- T/C (dose: 12.5 mg/kg/injection, schedule: Q01DX005 (ip), vehicle: Klucel (hydroxypropylcellulose) (HPC)): 92 % of control
- T/C (dose: 25.0 mg/kg/injection, schedule: Q01DX005 (ip), vehicle: Klucel (hydroxypropylcellulose) (HPC)): 87 % of control
- T/C [11]: 90 % of control

Structure (SMILES): CCc1cc(C(=O)OC)c(=O)n2c1-c1[nH]c3ccccc3c1CC2
- T/C [11]: 94 % of control
- T/C (dose: 100.0 mg/kg/injection, schedule: Q01DX005 (ip), vehicle: Klucel (hydroxypropylcellulose) (HPC)): 95 % of control
- T/C (dose: 200.0 mg/kg/injection, schedule: Q01DX005 (ip), vehicle: Klucel (hydroxypropylcellulose) (HPC)): 89 % of control

Structure (SMILES): CC(=O)O[C@]12C=C[C@H](O1)[C@@H]1C(=O)NC(=O)[C@@H]12
- T/C (dose: 6.25 mg/kg/injection, schedule: Q04DX002 (ip), vehicle: saline): 98 % of control
- T/C (dose: 12.5 mg/kg/injection, schedule: Q04DX002 (ip), vehicle: saline): 106 % of control
- T/C (dose: 25.0 mg/kg/injection, schedule: Q04DX002 (ip), vehicle: saline): 88 % of control

Structure (SMILES): Nc1cc2c(=O)c3cc(Cl)cc(Cl)c3[nH]c2c2c1C(=O)c1ccccc1C2=O
- T/C (dose: 50.0 mg/kg/injection, schedule: Q01DX009 (ip), vehicle: Klucel (hydroxypropylcellulose) (HPC)): 99 % of control
- T/C (dose: 100.0 mg/kg/injection, schedule: Q01DX009 (ip), vehicle: Klucel (hydroxypropylcellulose) (HPC)): 105 % of control
- T/C (dose: 200.0 mg/kg/injection, schedule: Q01DX009 (ip), vehicle: Klucel (hydroxypropylcellulose) (HPC)): 100 % of control
